Assay results from patent publication US20250221966A1, “RXFP1 AGONISTS” (BRISTOL-MYERS SQUIBB COMPANY, priority 2021, published 2025).
Where two headings read alike, the source gives them in different places.

Biological target: T1, human RXFP1 (Homo sapiens, UniProt Q9HBX9)
T1 construct: expressed in transfected cells
T1 sequence (Q9HBX9 1-757): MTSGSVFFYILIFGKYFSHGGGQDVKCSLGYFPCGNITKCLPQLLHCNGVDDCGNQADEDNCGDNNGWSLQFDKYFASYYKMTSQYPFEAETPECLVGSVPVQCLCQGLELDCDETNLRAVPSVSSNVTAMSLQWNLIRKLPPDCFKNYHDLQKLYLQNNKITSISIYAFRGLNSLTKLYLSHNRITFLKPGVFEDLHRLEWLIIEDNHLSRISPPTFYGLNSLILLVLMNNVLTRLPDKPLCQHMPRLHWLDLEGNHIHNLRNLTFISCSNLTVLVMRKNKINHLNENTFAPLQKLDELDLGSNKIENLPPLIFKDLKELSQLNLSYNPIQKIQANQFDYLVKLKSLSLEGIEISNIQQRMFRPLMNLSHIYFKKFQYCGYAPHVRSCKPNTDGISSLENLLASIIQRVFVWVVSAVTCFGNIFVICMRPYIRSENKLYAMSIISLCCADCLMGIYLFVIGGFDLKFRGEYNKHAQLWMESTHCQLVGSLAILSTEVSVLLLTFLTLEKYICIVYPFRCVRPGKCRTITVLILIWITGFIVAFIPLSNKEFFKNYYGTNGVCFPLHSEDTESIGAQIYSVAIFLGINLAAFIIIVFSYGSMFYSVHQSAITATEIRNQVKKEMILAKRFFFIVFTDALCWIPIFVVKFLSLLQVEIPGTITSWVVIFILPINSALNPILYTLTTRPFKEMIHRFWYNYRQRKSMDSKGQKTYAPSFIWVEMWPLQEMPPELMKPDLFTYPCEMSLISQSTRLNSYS
Assay: RXFP1 cAMP assay (hRXFP1 HEK293 cAMP assay, HTRF)
Assay type: cell-based
Summary of the method: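 HEK293 cells stably expressing human RXFP1 (1500 cells/well) in HBSS/20 mM HEPES/0.05% BSA/0.5 mM IBMX. Compounds were tested at 0.010 nM–50 μM final (2% DMSO) for 30 min at room temperature. cAMP was measured by HTRF and values derived by 4-parameter logistic fit.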

[1] = HEK293 cells stably expressing human RXFP1, 30 min at room temperature, read-out: cAMP hRXFP1 HEK293 Assay EC50

| Structure (SMILES) | EC50 [1] | EC50 (cAMP hRXFP1 HEK293 Assay EC50, HEK293 cells stably expressing human RXFP1, 30 min at room temperature) |
| --- | --- | --- |
| COc1ccc(-c2cc(C(O)C(=O)O)ccc2F)cc1C(=O)N[C@H]1[C@@H](C(=O)Nc2ccc(F)c(C(F)(F)F)c2)[C@H]2CC[C@@H]1/C2=C\CC1CC(F)(F)C1 (stereo partly drawn) [Example 352, 2-(3′-(((1R,2R,3S,4R,Z)-7-(2-(3,3-difluorocyclobutyl)ethylidene)-3-((4-fluoro-3-(trifluoromethyl)phenyl)carbamoyl)bicyclo[2.2.1]heptan-2-yl)carbamoyl)-6-fluoro-4′-methoxy-[1,1′-biphenyl]-3-yl)-2-hydroxyacetic acid] | 64 nM | – |
| COc1ccc(-c2cnc3n2CCC3O)cc1C(=O)N[C@H]1[C@@H](C(=O)Nc2ccc(F)c(C(F)(F)F)c2)[C@H]2CC[C@@H]1/C2=C\C1CC1 (some centres unmarked) [compound 754] | 3.6 nM | – |
| COc1ccc(C2=NOC3COCC23)cc1C(=O)N[C@H]1[C@@H](C(=O)N[C@H](C)C2CCC2)[C@H]2CC[C@@H]1/C2=C\C1CC1 (some centres unmarked) [compound 507] | 12.9 nM | – |
| COc1ccc(-c2cc(NC(=O)CC(=O)O)ccc2F)cc1C(=O)N[C@@H]1C2CCC(/C2=C/c2cnoc2)[C@@H]1C(=O)Nc1ccc(F)c(C(F)(F)F)c1 (some centres unmarked) [compound 175] | 17 nM | – |
| COc1ccc(C2=NOC(CC(=O)O)C2)cc1C(=O)N[C@@H]1C2CCC(/C2=C/C2CC2)[C@@H]1C(=O)Nc1ccc(F)c(C(F)(F)F)c1 (some centres unmarked) [compound 392] | 50 nM | – |
| COc1ccc(-c2ccc(C(=O)O)cc2)cc1C(=O)N[C@@H]1C2CCC(/C2=C/C2CC2)[C@@H]1C(=O)Nc1ccc(F)c(C(F)(F)F)c1 (some centres unmarked) [compound 167] | 16 nM | – |
| CCC(C)(C)NC(=O)[C@@H]1[C@H](NC(=O)c2cc(C3=NOC4COCC34)ccc2OC)[C@@H]2CC[C@H]1/C2=C/C1CC1 (some centres unmarked) [compound 502] | 11.9 nM | – |
| O=C(N[C@H]1[C@@H](C(=O)Nc2ccc(F)c(C(F)(F)F)c2)[C@H]2CC[C@@H]1/C2=C\C1CC1)c1cc(C2=NOC3COCC23)ccc1OCCCF (some centres unmarked) [compound 786] | 4 nM | – |
| CNC(=O)OC(C(=O)O)c1ccc(F)c(-c2ccc(OC)c(C(=O)N[C@@H]3C4CCC(/C4=C/C(F)(F)F)[C@@H]3C(=O)Nc3ccc(F)c(C(F)(F)F)c3)c2)c1 (some centres unmarked) [compound 180] | 5 nM | – |
| COc1ccc(-c2cc(C(=O)O)ccc2F)cc1C(=O)N[C@H]1[C@@H](C(=O)Nc2ccc(F)c(C(F)(F)F)c2)[C@H]2CC[C@@H]1/C2=C\c1ccccc1 [compound 80] | – | 11 nM |
| COc1ccc(-c2cc(C(=O)O)ccc2F)cc1C(=O)N[C@H]1[C@@H](C(=O)Nc2ccc(C)c(C(F)(F)F)c2)[C@H]2CC[C@@H]1/C2=C\C1CC1 [Example 265, 3′-(((1R,2R,3S,4R,Z)-7-(cyclopropylmethylene)-3-((4-methyl-3-(trifluoromethyl)phenyl)carbamoyl)bicyclo[2.2.1]heptan-2-yl)carbamoyl)-6-fluoro-4′-methoxy-[1,1′-biphenyl]-3-carboxylic acid] | 5 nM | – |
| COc1ccc(-c2ccc(C(=O)O)cc2F)cc1C(=O)N[C@H]1[C@@H](C(=O)Nc2ccc(F)c(C(F)(F)F)c2)[C@H]2CC[C@@H]1C2=C(C)C [compound 84] | 110 nM | – |
| COc1cc(F)c(F)cc1C(=O)N[C@@H]1C2CCC(/C2=C/c2cccc(-c3ccccc3)c2)[C@@H]1C(=O)Nc1ccc(F)c(C(F)(F)F)c1 (some centres unmarked) [compound 15] | 110 nM | – |
| COc1ccc(C2CCCN2C(=O)C(C)(C)O)cc1C(=O)N[C@@H]1C2CCC(C2=CC2CC2)[C@@H]1C(=O)Nc1ccc(F)c(C(F)(F)F)c1 (some centres unmarked) [compound 671] | 451 nM | – |
| COc1ccc(C2=NOC3COCC23)cc1C(=O)N[C@H]1[C@@H](C(=O)N[C@H](C)C2CCCC2)[C@H]2CC[C@@H]1/C2=C\C1CC1 (some centres unmarked) [compound 535] | 24 nM | – |
| COc1ccc(-c2cc(CO)ccc2F)cc1C(=O)N[C@@H]1C2CCC(/C2=C/c2cnoc2)[C@@H]1C(=O)Nc1ccc(F)c(C(F)(F)F)c1 (some centres unmarked) [compound 176] | 57 nM | – |
| COc1ccc(C2=NOC3CC(C(C)(C)O)CC23)cc1C(=O)N[C@H]1[C@@H](C(=O)Nc2ccc(F)c(C(F)(F)F)c2)[C@H]2CC[C@@H]1/C2=C\C1CC1 (single isomer, unassigned) [compound 599] | 104 nM | – |
| COc1ccc(C2=CCCN(CC(=O)O)C2)cc1C(=O)N[C@H]1[C@@H](C(=O)Nc2ccc(F)c(C(F)(F)F)c2)[C@H]2CC[C@@H]1/C2=C\C1CC1 [Example 259, 2-(5-(3-(((1R,2R,3S,4R,Z)-7-(cyclopropylmethylene)-3-((4-fluoro-3-(trifluoromethyl)phenyl)carbamoyl)bicyclo[2.2.1]heptan-2-yl)carbamoyl)-4-methoxyphenyl)-3,6-dihydropyridin-1(2H)-yl)acetic acid] | 815 nM | – |
| COc1ccc(-c2ccnc(N3CCOCC3)c2F)cc1C(=O)N[C@@H]1C2CCC(/C2=C/C2CC2)[C@@H]1C(=O)Nc1ccc(F)c(C(F)(F)F)c1 (some centres unmarked) [compound 274] | 16 nM | – |
| COc1ccc(-c2cc(C(NC(=O)COc3ccccc3)C(=O)O)ccc2F)cc1C(=O)N[C@@H]1C2CCC(/C2=C/C(F)(F)F)[C@@H]1C(=O)Nc1ccc(F)c(C(F)(F)F)c1 (some centres unmarked) [compound 244] | 7 nM | – |
| COc1cc(F)c(F)cc1C(=O)N[C@@H]1C2CCC(/C2=C/C(=O)OCc2ccccc2)[C@@H]1C(=O)Nc1ccc(F)c(C(F)(F)F)c1 (some centres unmarked) [compound 9] | 310 nM | – |
| COC(=O)N1CC2ON=C(c3ccc(OC)c(C(=O)N[C@H]4[C@@H](C(=O)Nc5ccc(F)c(C(F)(F)F)c5)[C@H]5CC[C@@H]4/C5=C\C4CC4)c3)C2C1 (stereo partly drawn) [Example 438, methyl 3-(3-(((1R,2R,3S,4R,Z)-7-(cyclopropylmethylene)-3-((4-fluoro-3-(trifluoromethyl)phenyl)carbamoyl)bicyclo[2.2.1]heptan-2-yl)carbamoyl)-4-methoxyphenyl)-3a,4,6,6a-tetrahydro-5H-pyrrolo[3,4-d]isoxazole-5-carboxylate] | 24 nM | – |

More lines, in order of falling EC50 [1], values ahead:

| EC50 [1] | EC50 (cAMP hRXFP1 HEK293 Assay EC50, HEK293 cells stably expressing human RXFP1, 30 min at room temperature) | Structure (SMILES) |
| --- | --- | --- |
| 3.5 nM | – | COc1ccc(-c2cc([C@H](C)O)on2)cc1C(=O)N[C@H]1[C@@H](C(=O)Nc2ccc(F)c(C(F)(F)F)c2)[C@H]2CC[C@@H]1/C2=C\C1CC1 [compound 465] |
| 3.4 nM | – | O=C(N[C@H]1[C@@H](C(=O)Nc2ccc(F)c(C(F)(F)F)c2)[C@H]2CC[C@@H]1/C2=C\C1CC1)c1cc(C2=NOC3CC(CO)CC23)ccc1OCC(F)F (some centres unmarked) [compound 783] |
| 3.4 nM | – | COc1ccc(C2=NO[C@H]3COC[C@@H]23)cc1C(=O)N[C@H]1[C@@H](C(=O)Nc2ccc(F)c(C(F)(F)F)c2)[C@H]2CC[C@@H]1/C2=C\CCC(F)(F)F [compound 830] |
| 3.1 nM | – | COc1cc(F)c(C2=NOC3COCC23)cc1C(=O)N[C@H]1[C@@H](C(=O)Nc2ccc(F)c(C(F)(F)F)c2)[C@H]2CC[C@@H]1/C2=C\C1CC1 (single isomer, unassigned) [compound 463] |
| 2.9 nM | – | COc1ccc(C2=NO[C@H]3CC(CO)C[C@@H]23)cc1C(=O)N[C@H]1[C@@H](C(=O)Nc2ccc(F)c(C(F)(F)F)c2)[C@H]2CC[C@@H]1/C2=C\CCC1CC1 (some centres unmarked) [compound 824] |
| 2.2 nM | – | COc1c(F)cc(-c2cnc3n2CC(O)CC3)cc1C(=O)N[C@H]1[C@@H](C(=O)Nc2ccc(F)c(C(F)(F)F)c2)[C@H]2CC[C@@H]1/C2=C\C1CC1 (some centres unmarked) [compound 751] |
| 2.2 nM | – | COc1ccc(-c2cc([C@H](OC(=O)NC3CCC3)C(F)(F)F)ccc2F)cc1C(=O)N[C@@H]1C2CCC(/C2=C/C2CCCC2)[C@@H]1C(=O)Nc1ccc(F)c(C(F)(F)F)c1 (some centres unmarked) [compound 922] |
| 2 nM | – | CNC(=O)C(OC(=O)Nc1ccccc1)c1ccc(F)c(-c2ccc(OC)c(C(=O)N[C@@H]3C4CCC(/C4=C/C4CC4)[C@@H]3C(=O)Nc3ccc(F)c(C(F)(F)F)c3)c2)c1 (some centres unmarked) [compound 237] |
| 1.7 nM | – | COc1ccc(-c2cc(C(NC(=O)C3CCOCC3)C(=O)O)ccc2F)cc1C(=O)N[C@H]1[C@@H](C(=O)Nc2ccc(F)c(C(F)(F)F)c2)[C@H]2CC[C@@H]1/C2=C\C1CC(F)(F)C1 (some centres unmarked) [compound 943] |
| 1.4 nM | – | COc1ccc(-c2cc(C(OC(=O)NC(C)(C)C)C(=O)O)ccc2F)cc1C(=O)N[C@H]1[C@@H](C(=O)Nc2ccc(F)c(C(F)(F)F)c2)[C@H]2CC[C@@H]1/C2=C\CCC(F)(F)F (some centres unmarked) [compound 934] |
| 1.1 nM | – | COc1ccc(-c2cc([C@H](OC(=O)NC3CC3)C(F)(F)F)ccc2F)cc1C(=O)N[C@H]1[C@@H](C(=O)Nc2ccc(F)c(C(F)(F)F)c2)[C@H]2CC[C@@H]1/C2=C\C(C)C [compound 930] |
| 1 nM | – | COc1c(F)cc(C2=NOC3CC(CO)CC23)cc1C(=O)N[C@H]1[C@@H](C(=O)N[C@H](C)C2(C)CC2)[C@H]2CC[C@@H]1/C2=C\C1CC(F)(F)C1 (some centres unmarked) [compound 813] |
| 1 nM | – | COc1ccc(-c2cc(C(OC(=O)NC3CCC3)C(F)F)ccc2F)cc1C(=O)N[C@@H]1C2CCC(/C2=C/C2CC2)[C@@H]1C(=O)Nc1ccc(F)c(C(F)(F)F)c1 (some centres unmarked) [compound 231] |
